We go through 29 molecules from patent US10947241B2, “Phenyl phthalazine derivative, method for the preparation thereof, and pharmaceutical composition comprising the same” (Seoul National University Hospital, priority 2016, dated 2021).

Structures are written as SMILES. Where a name gives a salt, the structure may show the parent alone.

The target of this assay is hResistin (Homo sapiens (Human), UniProt Q9HD89). Nature of the assay: Evaluation of the ability to inhibit TNF-α secretion by hResistin (THP-1 cells, ELISA). In kind it is cell-based. Conditions: for inhibition at 5 µM: inhibition of TNF-α secretion by hResistin in THP-1 cells; for IC50: THP-1 human monocyte cell line, human recombinant Resistin. The protocol: Experimental Example: Evaluation of the Ability to Inhibit TNF-α Secretion by hResistin
Chain of hResistin (Q9HD89 19-108): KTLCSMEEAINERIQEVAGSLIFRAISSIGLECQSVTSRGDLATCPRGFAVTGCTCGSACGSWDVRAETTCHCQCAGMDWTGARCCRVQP
Using THP-1 (human monocyte) cell line and ELISA system, the abilities to inhibit TNF-α secretion by hResistin (IC50) were evaluated for the compounds prepared in the above examples. The compounds target hResistin, and the abilities of the compounds to inhibit TNF-α secretion by human recombinant Resistin in human monocyte (THP-1) were evaluated. The abilities to inhibit TNF-α secretion were assessed by ELISA quantifying the amount of antibody with the enzyme as a marker using an antigen-antibody reaction.
Specifically, the cultured cells were spun down at 1,500 rpm for 2 minutes, the supernatant was removed and then the cells were re-suspended in 10 mL of complete RPMI-1640 medium. After counting the number of cells using Luna™ Automated Cell Counter, cells were plated into 96-well assay plates at 50 μL per well. The cells cultured for 24 hours were treated with the test substances in accordance with the concentration for 1 hour, and then the supernatant was collected and subjected to ELISA assay. In the ELISA assay, the absorbance at 450 nm (OD450 nm) was measured using Flexstation 3. The ability of each test substance to inhibit TNF-α secretion (IC50) and its inhibition at a concentration of 5 uM are shown in Table 1 below.
In general terms: ELISA stands for enzyme-linked immunosorbent assay.

A word on the inhibition: it is how much of the control response was suppressed. As to `CC(C)[C@H](N)C(=O)N1CCN(c2nnc(-c3ccc(Cl)cc3)c3ccccc23)C[C@H]1C` [Example 71, (S)-2-amino-1-((R)-4-(4-(4-chlorophenyl)phthalazin-1-yl)-2-methylpiperazin-1-yl)-3-methylbutan-1-one hydrochloride], the inhibition at 5 µM was determined as 42.2%.
In turn, `C[C@H]1CN(c2nnc(-c3ccc(Cl)cc3)c3ccccc23)CCN1C(=O)C(C)(C)N` [Example 72, (S)-2-amino-1-(4-(4-(4-chlorophenyl)phthalazin-1-yl)-2-methylpiperazin-1-yl)-2-methylpropan-1-one hydrochloride] registered an inhibition at 5 µM of 72.2%.
The molecule `CC(C)[C@H](N)C(=O)N1CCN(c2nnc(-c3ccc(Cl)cc3)c3ccccc23)C[C@@H]1C` [Example 73, (S)-2-amino-1-((S)-4-(4-(4-chlorophenyl)phthalazin-1-yl)-2-methylpiperazin-1-yl)-3-methylbutan-1-one hydrochloride] yielded an inhibition at 5 µM of 53.6%.
On the same count and under the same terms, for `C[C@H]1CN(C(=O)C(C)(C)N)CCN1c1nnc(-c2ccc(Cl)cc2)c2ccccc12` [Example 74, (S)-2-amino-1-(4-(4-(4-chlorophenyl)phthalazin-1-yl)-3-methylpiperazin-1-yl)-2-methylpropan-1-one hydrochloride] the value was 38.7%; for `CC(C)[C@H](N)C(=O)N1CCN(c2nnc(-c3ccc(Cl)cc3)c3ccccc23)[C@@H](C)C1` [Example 75, (S)-2-amino-1-((S)-4-(4-(4-chlorophenyl)phthalazin-1-yl)-3-methylpiperazin-1-yl)-3-methylbutan-1-one hydrochloride], 30.9%.
Molecule `N[C@@H](Cc1c[nH]cn1)C(=O)N1CCN(c2nnc(-c3ccc(Cl)cc3)c3ccccc23)CC1` [Example 76, (S)-2-amino-1-(4-(4-(4-chlorophenyl)phthalazin-1-yl)piperazin-1-yl)-3-(1H-imidazol-4-yl)propan-1-one dihydrochloride] yielded an inhibition at 5 µM of 28.9%.
The same measure, in the same setting: the result for `CC(C)(C)C(N)C(=O)N1CCN(c2nnc(-c3ccc(Cl)cc3)c3ccccc23)CC1` (centres unmarked) [Example 77, 2-amino-1-(4-(4-(4-chlorophenyl)phthalazin-1-yl)piperazin-1-yl)-3,3-dimethylbutan-1-one hydrochloride] reads 46.7%.
As to `O=C(C1CCCCN1)N1CCN(c2nnc(-c3ccc(Cl)cc3)c3ccccc23)CC1` (centres unmarked) [Example 78, (4-(4-(4-chlorophenyl)phthalazin-1-yl)piperazin-1-yl)(piperidin-2-yl)methanone hydrochloride], the inhibition at 5 µM turned out to be 81.3%.
The molecule `N[C@@H](COCc1ccccc1)C(=O)N1CCN(c2nnc(-c3ccc(Cl)cc3)c3ccccc23)CC1` [Example 79, (S)-2-amino-3-(benzyloxy)-1-(4-(4-(4-chlorophenyl)phthalazin-1-yl)piperazin-1-yl)propan-1-one hydrochloride] returned an inhibition at 5 µM of 65.4%.
Take `N[C@H](C(=O)N1CCN(c2nnc(-c3ccc(Cl)cc3)c3ccccc23)CC1)c1ccccc1` [Example 80, (S)-2-amino-1-(4-(4-(4-chlorophenyl)phthalazin-1-yl)piperazin-1-yl)-2-phenylethanone hydrochloride]: the inhibition at 5 µM was 69.9%.
In the case of `O=C1CN[C@H](C(=O)N2CCN(c3nnc(-c4ccc(Cl)cc4)c4ccccc34)CC2)CN1` [Example 81, (S)-5-(4-(4-(4-chlorophenyl)phthalazin-1-yl)piperazine-1-carbonyl)piperazin-2-one hydrochloride], the inhibition at 5 µM amounted to 48.1%.
On the same count and under the same terms, the result for `CC(C)(C(=O)O)N1CCN(c2nnc(-c3ccc(Cl)cc3)c3ccccc23)CC1` [Example 82, 2-(4-(4-(4-chlorophenyl)phthalazin-1-yl)piperazin-1-yl)-2-methylpropanoic acid] reads 50%.
Regarding `NC(=O)CCC(N)C(=O)N1CCN(c2nnc(-c3ccc(Cl)cc3)c3ccccc23)CC1` (centres unmarked) [Example 84, 4-amino-5-(4-(4-(4-chlorophenyl)phthalazin-1-yl)piperazin-1-yl)-5-oxopentanamide hydrochloride], the inhibition at 5 µM is 12.6%.
As usually defined, the IC50 is the concentration that inhibits the measured activity by half. Consider `NC(=O)CC(N)C(=O)N1CCN(c2nnc(-c3ccc(Cl)cc3)c3ccccc23)CC1` (centres unmarked) [Example 85, 3-amino-4-(4-(4-(4-chlorophenyl)phthalazin-1-yl)piperazin-1-yl)-4-oxobutanamide hydrochloride], for which at 5 µM the inhibition was 45.3% and the IC50 was determined as 5400 nM.
Regarding `NC(CCC(=O)O)C(=O)N1CCN(c2nnc(-c3ccc(Cl)cc3)c3ccccc23)CC1` (centres unmarked) [Example 86, 4-amino-5-(4-(4-(4-chlorophenyl)phthalazin-1-yl)piperazin-1-yl)-5-oxopentanoic acid hydrochloride], the 50% inhibitory concentration (IC50) is 18000 nM.
In the case of `Clc1ccc(-c2nnc(N3CCC4CCNC4C3)c3ccccc23)cc1` (centres unmarked) [Example 87, 1-(4-chlorophenyl)-4-(tetrahydro-1H-pyrrolo[2,3-c]pyridin-6(2H,7H,7aH)-yl)phthalazine hydrochloride], the IC50 came out at 1700 nM.
The same measure, in the same setting: for `Clc1ccc(-c2nnc(N3CC4CCNC4C3)c3ccccc23)cc1` (centres unmarked) [Example 88, 1-(4-chlorophenyl)-4-(hexahydropyrrolo[3,4-b]pyrrol-5(1H)-yl)phthalazine hydrochloride] the value was 900 nM.
For the molecule `CNC1CCN(c2nnc(-c3ccc(Cl)cc3)c3ccc(Cl)cc23)C1` (centres unmarked) [Example 89, 1-(7-chloro-4-(4-chlorophenyl)phthalazin-1-yl)-N-methylpyrrolidin-3-amine hydrochloride], testing at 5 µM gave an inhibition of 77.9% and the IC50 is 1800 nM.
As to `CNC1CCN(c2nnc(-c3ccc(Cl)cc3)c3cc(Cl)ccc23)C1` (centres unmarked) [Example 90, 1-(6-chloro-4-(4-chlorophenyl)phthalazin-1-yl)-N-methylpyrrolidin-3-amine hydrochloride], the inhibition at 5 µM amounted to 86.7% and the IC50 amounted to 900 nM.
In the same order, the values of `CNC1CCN(c2nnc(-c3ccc(Cl)cc3)c3cc(F)ccc23)C1` (centres unmarked) [Example 91, 1-(4-(4-chlorophenyl)-6-fluorophthalazin-1-yl)-N-methylpyrrolidin-3-amine hydrochloride] are 76.6% and 600 nM.
As for `CNC1CCN(c2nnc(Oc3ccc(Cl)cc3)c3ccccc23)C1` (centres unmarked) [Example 93, 1-(4-(4-chlorophenoxy)phthalazin-1-yl)-N-methylpyrrolidin-3-amine hydrochloride], the inhibition at 5 µM was 67.6% and the IC50 stood at 1900 nM.
`CC(C)(N)C(=O)N1CCN(c2nnc(Oc3ccc(Cl)cc3)c3ccccc23)CC1` [Example 94, 2-amino-1-(4-(4-(4-chlorophenoxy)phthalazin-1-yl)piperazin-1-yl)-2-methylpropan-1-one hydrochloride] had an inhibition at 5 µM of 29.9%.
As for `Clc1ccc(-c2nnc(O[C@H]3CCNC3)c3ccccc23)cc1` [Example 95, (S)-1-(4-chlorophenyl)-4-(pyrrolidin-3-yloxy)phthalazine hydrochloride], the inhibition at 5 µM worked out at 64% and the IC50 amounted to 2300 nM.
`Clc1ccc(-c2nnc(OC3CCCNC3)c3ccccc23)cc1` (centres unmarked) [Example 96, 1-(4-chlorophenyl)-4-(piperidin-3-yloxy)phthalazine hydrochloride] yielded an inhibition at 5 µM of 58.9%.
For `CNC1CCN(c2nnc(Nc3ccc(Cl)cc3)c3ccccc23)C1` (centres unmarked) [Example 97, N-(4-chlorophenyl)-4-(3-(methylamino)pyrrolidin-1-yl)phthalazin-1-amine], the inhibition at 5 µM came out at 26.9%.
Molecule `CNC1CCN(c2nnc(Cc3ccc(Cl)cc3)c3ccccc23)C1` (centres unmarked) [Example 98, 1-(4-(4-chlorobenzyl)phthalazin-1-yl)-N-methylpyrrolidin-3-amine hydrochloride] yielded an inhibition at 5 µM of 3.9%.
For the molecule `CC(C)(N)C(=O)N1CCN(c2nnc(-c3ccc(C(F)(F)F)cc3)c3ccccc23)CC1` [Example 102, 2-amino-2-methyl-1-(4-(4-(4-(trifluoromethyl)phenyl)phthalazin-1-yl)piperazin-1-yl)propan-1-one hydrochloride], testing at 5 µM gave an inhibition of 37%.
Regarding `CC(C)(N)C(=O)N1CCN(c2nnc(-c3ccc(OC(F)(F)F)cc3)c3ccccc23)CC1` [Example 103, 2-amino-2-methyl-1-(4-(4-(4-(trifluoromethoxy)phenyl)phthalazin-1-yl)piperazin-1-yl)propan-1-one hydrochloride], the inhibition at 5 µM was found to be 32%.
As for `CC(C)(N)C(=O)N1CCN(c2nnc(-c3ccc(CCC(=O)O)cc3)c3ccccc23)CC1` [Example 104, 3-(4-(4-(4-(2-amino-2-methylpropanoyl)piperazin-1-yl)phthalazin-1-yl)phenyl)propanoic acid hydrochloride], at 5 µM the inhibition was 0.6%.
